In patent US6635621B1, “Cysteine protease inhibitors” (Naeja Pharmaceutical Inc., priority 1999, dated 2003) one finds IC50 and melting point data, which are given here for 17 compounds.

Each structure is given as a SMILES string. Bounds are passed on as bounds.

One series concerns the target rat cathepsin B (Rattus norvegicus, UniProt P00787). Briefly: In vitro assay for inhibition of cathepsin B. In kind it is biochemical. Particulars: r rat cathepsin B, substrate N-CBZ-Phe-Arg-AMC, pH 5.1, 10 min incubation at room temperature. The protocol:
In Vitro Assay Procedure for Cathepsin B
The compounds of formula I were tested for inhibition of cathepsin B using the known method (A. J. Barret et al., Biochem. J. 1982, 201, 189-198). To a 170 μl of enzyme-buffer mixture (enzyme: r rat cathepsin B, diluted to give approximate 10 F units/min, buffer: 56 mM sodium acetate, 1.124 mM EDTA, 10 mM DTT, pH 5.1) a 10 μL of inhibitor (dissolved in DMSO) was added. After 10 min of incubation at room temperature, a 20 μl of 5 mM substrate (N-CBZ-Phe-Arg-AMC, dissolved in DMSO) was added to initiate reaction. Reading is followed up for 10 min at the fluoroscan reader (excitation at 380 nm emission at 460 nm).
(§1) A plot of percentage of inhibition vs inhibitor concentration is obtained, and IC50 is determined using a linear regression calculations (concentration of inhibitor which will give 50% inhibition).

The target in another series is cathepsin S (Homo sapiens, UniProt P25774). Briefly: In vitro assay for inhibition of cathepsin S. Type of series: biochemical. Particulars: r cathepsin S, substrate N-CBZ-Val-Val-Arg-AMC, pH 6.5, 10 min incubation at room temperature. On the procedure:
In Vitro Assay Procedure for Cathepsin S
To a 170 μl of enzyme-buffer mixture (enzyme: r cathepsin S, diluted to give approximate 30 F units/min, buffer: 100 mM sodium phosphate, 1 mM EDTA, 5 mM DTT, 0.01% Brij, pH 6.5) a 10 μL of inhibitor (dissolved in DMSO) was added. After 10 min of incubation at room temperature, a 20 μl of 1.2 mM substrate (N-CBZ-Val-Val-Arg-AMC, dissolved in DMSO) was added to initiate reaction. Reading is followed up for 10 min at the fluoroscan II plate reader (excitation at 380 nm emission at 460 nm).
as §1

The next series deals with T1, cathepsin K (Homo sapiens, UniProt P43235).
T1 sequence (P43235 115-329): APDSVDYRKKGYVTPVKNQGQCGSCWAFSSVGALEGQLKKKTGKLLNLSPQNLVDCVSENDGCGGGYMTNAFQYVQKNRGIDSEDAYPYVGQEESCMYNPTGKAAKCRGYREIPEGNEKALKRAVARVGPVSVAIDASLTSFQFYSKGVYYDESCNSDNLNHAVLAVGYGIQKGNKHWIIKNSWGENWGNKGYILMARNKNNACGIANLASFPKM
Briefly: In vitro assay for inhibition of cathepsin K. In kind it is biochemical. Conditions: r cathepsin K, substrate N-CBZ-Phe-Arg-AMC, pH 5.5, 10 min incubation at room temperature. On the procedure: In Vitro Assay Procedure for Cathepsin K
To a 170 μl of enzyme-buffer mixture (enzyme: r cathepsin K, diluted to give approximate 30 F units/min, buffer: 100 mM sodium acetate, 5 mM EDTA, 20 mM L-cysteine, 0.01% Brij, pH 5.5) a 10 μL of inhibitor (dissolved in DMSO) was added. After 10 min of incubation at room temperature, a 20 μl of 2.7 mM substrate (N-CBZ-Phe-Arg-AMC, dissolved in DMSO) was added to initiate reaction. Reading is followed up for 10 min at the fluoroscan II plate reader (excitation at 380 nm emission at 460 nm).
as §1

The next series addresses rat cathepsin L (Rattus norvegicus, UniProt P07154). Briefly: In vitro assay for inhibition of cathepsin L. In kind it is biochemical. Conditions: r rat cathepsin L, substrate N-CBZ-Phe-Arg-AMC, pH 5.0, 10 min incubation at room temperature. The protocol: In Vitro Assay Procedure for Cathepsin L
To a 170 μl of enzyme-buffer mixture (enzyme: r rat cathepsin L, diluted to give approximate 15 F units/min, buffer: 58.8 mM sodium citrate, 1.18 mM EDTA, 235 mM sodium chloride, 5 mM […], pH 5.0) a 10 μL of inhibitor (dissolved in DMSO) was added. After 10 min of incubation at room temperature, a 20 μl of 1 mM substrate (N-CBZ-Phe-Arg-AMC, dissolved in DMSO) was added to initiate reaction. Reading is followed up for 10 min at the fluoroscan reader (excitation at 380 nm emission at 460 nm).
as §1

rat cathepsin L, sequence (P07154 114-334): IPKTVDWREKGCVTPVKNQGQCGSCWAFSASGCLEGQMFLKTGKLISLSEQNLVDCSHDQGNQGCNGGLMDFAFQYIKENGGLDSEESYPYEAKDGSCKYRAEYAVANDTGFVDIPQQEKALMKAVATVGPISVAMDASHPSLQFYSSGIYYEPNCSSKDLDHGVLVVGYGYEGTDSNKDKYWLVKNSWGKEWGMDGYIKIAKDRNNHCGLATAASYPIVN
cathepsin S, sequence (P25774 115-331, species assumed): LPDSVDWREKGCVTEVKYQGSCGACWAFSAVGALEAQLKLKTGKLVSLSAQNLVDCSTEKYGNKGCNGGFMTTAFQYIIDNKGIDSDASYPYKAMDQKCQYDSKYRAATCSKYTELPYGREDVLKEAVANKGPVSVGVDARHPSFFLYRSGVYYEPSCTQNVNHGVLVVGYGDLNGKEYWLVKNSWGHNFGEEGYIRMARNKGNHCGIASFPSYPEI
rat cathepsin B, sequence (P00787 80-333): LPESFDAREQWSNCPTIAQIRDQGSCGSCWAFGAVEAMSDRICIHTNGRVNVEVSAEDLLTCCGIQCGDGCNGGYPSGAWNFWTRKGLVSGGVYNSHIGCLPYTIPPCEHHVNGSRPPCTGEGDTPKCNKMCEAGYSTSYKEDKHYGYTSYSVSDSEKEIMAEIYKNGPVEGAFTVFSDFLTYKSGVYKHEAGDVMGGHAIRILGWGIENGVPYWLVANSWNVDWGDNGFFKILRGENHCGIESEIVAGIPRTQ

One may read the IC50 as the point on the concentration scale where inhibition reaches its midpoint. High values mean weaker potency, low ones greater potency. For orientation: melting point means the temperature, or range, at which the solid turns liquid. `CC(C)C[C@H](NC(=O)OCc1ccccc1)C(=O)NC(=CN)C(N)=O` [Example 1, 2-(2S-2-Benzyloxycarbonylamino-2-isopropylmethyl-acetamido)-3-amino-acrylamide] had a melting point of 80 to 90 °C. This compound returned an IC50 at rat cathepsin B of 4.35 µM. Moreover, at cathepsin S, half-maximal inhibition (IC50) required 0.069 µM. The compound further had an IC50 on cathepsin K of 0.011 µM. At rat cathepsin L, the IC50 stood at 0.094 µM.
The corresponding values for `NC=C(NC(=O)[C@H](CC1CCCCC1)NC(=O)OCc1ccccc1)C(N)=O` [Example 2, 2-(2S-2-Benzyloxycarbonylamino-2-cyclohexylmethyl-acetamido)-3-amino-acrylamide] are 80 to 85 °C, 1.17 µM, 0.026 µM, 1.78 µM and 0.072 µM.
The corresponding values for `NC=C(NC(=O)[C@H](Cc1ccccc1)NC(=O)OCc1ccccc1)C(N)=O` [Example 3, 2-(2S-2-Benzyloxycarbonylamino-2-benzyl-acetamido)-3-amino-acrylamide] are 127 to 135 °C, 1.42 µM, 0.26 µM, 0.23 µM and 0.0055 µM.
For `NC=C(NC(=O)[C@H](Cc1ccccc1)NC(=O)CCc1ccccc1)C(N)=O` [Example 4, 2-[2S-2-(3-Phenylpropionoyl)amino-2-benzyl-acetamido]-3-amino-acrylamide] the same measures were 75 to 80 °C, 2.63 µM, 0.0087 µM, 1.2 µM and 0.015 µM.
As to `CC(C)C[C@H](NC(=O)OCc1ccccc1)C(=O)NC(=CNCc1ccccc1)C(N)=O` [Example 5, 2-(2S-2-Benzyloxycarbonylamino-2-isopropylmethyl-acetamido)-3-benzylamino-acrylamide], the melting point lay in the range of 115 to 120 °C. The IC50 at rat cathepsin B turned out to be 2.28 µM. At cathepsin S, this compound returned an IC50 of 0.061 µM. The same compound yielded an IC50 against cathepsin K of 0.0031 µM. At rat cathepsin L, the IC50 came to 0.064 µM.
`CC(C)C[C@H](NC(=O)OCc1ccccc1)C(=O)NC(=CN1CCOCC1)C(N)=O` [Example 6, 2-(2S-2-Benzyloxycarbonylamino-2-isopropylmethyl-acetamido)-3-(morpholin-4-yl)-acrylamide] showed a melting point of 120 to 130 °C. This compound returned an IC50 against rat cathepsin B of 0.37 µM. The compound also had an IC50 against cathepsin S of 0.05 µM. The IC50 on cathepsin K amounted to 0.003 µM. Also, the IC50 at rat cathepsin L was determined as 0.075 µM.
In turn, `CC(C)C[C@H](NC(=O)OCc1ccccc1)C(=O)NC(=CNCCO)C(N)=O` [Example 7, 2-(2S-2-Benzyloxycarbonylamnino-2-isopropylmnethyl-acetamido)-3-(2-hydroxyethylamnino)-acrylamide] came in with a melting point of 89 to 92 °C. Half-maximal inhibition at rat cathepsin B (IC50) was put at 1.96 µM. Half-maximal inhibition at cathepsin S (IC50) was put at 0.18 µM. Further, on cathepsin K, the IC50 came to 0.012 µM. The midpoint of inhibition against rat cathepsin L, the IC50, lay at 0.23 µM.
For `CC(C)C[C@H](NC(=O)OCc1ccccc1)C(=O)NC(=CNc1ccccc1)C(N)=O` [Example 8, 2-(2S-2-Benzyloxycarbonylamino-2-isoproplmethyl-acetamido)-3-phenylamino-acrylamide] the same measures were 199 to 200 °C, 37.1 µM, 6.9 µM, 0.33 µM and 2.36 µM.
The corresponding values for `CC(C)C[C@H](NC(=O)OCc1ccccc1)C(=O)N/C(=C\N1CCCCC1)C(N)=O` [Example 9, 2-(2S-2-Benzyloxycarbonylamino-2-isopropylmethyl-acetamido)-3-piperidino-acrylamide] are 99 to 103 °C, 0.89 µM, 0.05 µM, 0.014 µM and 0.062 µM.
For `CC(=O)N/C=C(/NC(=O)[C@H](CC(C)C)NC(=O)OCc1ccccc1)C(N)=O` [Example 10a, (2E)-(2S-2-Benzyloxycarbonylamino-2-isopropylmethyl-acetamido)-3-acetamido-acrylamide], the melting point was in the range of 73 to 76 °C. Moreover, the concentration for half-maximal inhibition (IC50) against rat cathepsin B stood at 45.2 µM. Moreover, the midpoint of inhibition at cathepsin S, the IC50, lay at 0.013 µM. Moreover, at cathepsin K, half-maximal inhibition (IC50) was put at 1.42 µM. The IC50 against rat cathepsin L was found to be 8.62 µM.
On to `CC(C)C[C@H](NC(=O)OCc1ccccc1)C(=O)NC(C(N)=O)C(O)O` (stereo partly drawn) [Example 11, 2-(2S-2-Benzyloxycarbonylamino-2-isopropylmethyl-acetamido)-3,3-dihydroxy-propionamide], for which the melting point was 86 to 90 °C. Moreover, the IC50 against rat cathepsin B was 2.4 µM. Besides, at cathepsin S, the IC50 was found to be 0.015 µM. This compound also registered an IC50 on cathepsin K of 0.014 µM. Further, it took 0.11 µM to reach half-maximal inhibition against rat cathepsin L (IC50).
In turn, `NC(=O)C(NC(=O)[C@H](Cc1ccccc1)NC(=O)CCc1ccccc1)C(O)O` (stereo partly drawn) [Example 14, 2-[2S-2-(3-Phenylpropionoylamino)-2-benzyl-acetamido]-3,3-dihydroxy-propionamide] came in with a melting point of 105 to 110 °C. This compound also showed an IC50 against rat cathepsin B of 0.98 µM. Also, at cathepsin S, the IC50 came to 0.004 µM. Besides, at cathepsin K, the concentration for half-maximal inhibition (IC50) was 1.13 µM. The compound further gave an IC50 at rat cathepsin L of 0.004 µM.
Compound `CC(C)C[C@H](NC(=O)OCc1ccccc1)C(=O)N/C(=C/O)C(N)=O` [Example 15, 2-(2S-2-Benzyloxycarbonylamino-2-isopropylmethyl-acetamido)-3-hydroxy-acrylamide] registered a melting point of 105 to 115 °C. At rat cathepsin B, this compound yielded an IC50 of 9.5 µM. The compound further gave an IC50 at cathepsin S of 0.075 µM. In addition, 0.018 µM corresponded to half-maximal inhibition on cathepsin K (IC50). This compound had a half-maximal inhibitory concentration (IC50) against rat cathepsin L of 0.17 µM.
`CC(C)C[C@H](NC(=O)OCc1ccccc1)C(=O)N/C(=C\N1CCN(C)CC1)C(N)=O` [Example 17, 2-(2S-2-Benzyloxycarbonylamino-2-isopropylmethyl-acetamido)-3-(4-methylpiperazino)-acrylamide] displayed a melting point of 93.5 to 95 °C. In addition, at rat cathepsin B, half-maximal inhibition (IC50) was put at 1.9 µM. Moreover, at cathepsin S, the IC50 amounted to 0.18 µM. At cathepsin K, this compound showed an IC50 of 0.019 µM. The compound also came in with an IC50 against rat cathepsin L of 0.23 µM.
For `CC(C)C[C@H](NC(=O)OCc1ccccc1)C(=O)N/C(=C\N1CCC(NC(=O)OC(C)(C)C)C1)C(N)=O` (stereo partly drawn) [Example 18, 2-(2S-2-Benzyloxycarbonylamino-2-isopropylmethyl-acetamido)-3-(3-tert-butoxycarbonylamino-pyrrolidino)-acrylamide] the same measures were 140 to 142 °C, 1.9 µM, 0.039 µM, 0.0096 µM and 0.12 µM.
For `CC(=O)N/C=C(/NC(=O)[C@H](CC1CCCCC1)NC(=O)OCc1ccccc1)C(N)=O` [Example 19a, (2E)-(2S-2-Benzyloxycarbonylamino-2-cyclohexymethyl-acetamido)-3-acetamido-acrylamide] the same measures were 140 to 142 °C, greater than 58 µM, 1.86 µM, greater than 58 µM and greater than 58 µM.
With `COC(=O)CN/C=C(\NC(=O)[C@H](Cc1ccccc1)NC(=O)OCc1ccccc1)C(N)=O` [Example 31b, (2Z)-(2S-2-Benzyloxycarbonylamino-2-phenylmethyl-acetamido)-3-(1-carbomethoxy-methylamino)-acrylamide], the IC50 stood at 0.43 µM on rat cathepsin B, 0.43 µM against cathepsin S, 0.09 µM against cathepsin K and 0.017 µM against rat cathepsin L.
